US9023853B2, “Janus kinase 2 (JAK2) inhibitor for the treatment of lupus” (Cephalon, Inc., priority 2010, dated 2015)

How the values were obtained:
Type in all cases: in vivo, mouse
[1] = test system: MRL/lpr mice; test: Lymphomegaly, splenomegaly and spleen leukocyte counts in MRL/lpr lupus model; conditions: for total spleen leukocyte counts compared to vehicle: p<0.05; for mice without lymphomegaly: vehicle 0%
Description: Six week old lupus-prone, female, MRL/lpr (Jackson Labs, #000485) and non-lupus prone control MRL/MpJ (Jackson Labs, #000486) mice were obtained from Jackson Laboratories (Bar Harbor, Me.) at 6-weeks of age. Spontaneous SLE-prone NZBWF1/J (NZM) (catalog no. 100008) female mice and non-lupus prone (within time from of experiment) NZW/LacJ (catalog no. 001058) female mice were obtained from Jackson Laboratories (Bar Harbor, Me.) at 15-weeks of age. All mice were maintained on a […] light/dark cycle, with food and water available ad libitum. All experimental animal procedures were approved by and in accordance to the regulations of the Institutional Animal Care and Use Committee (IACUC) of Cephalon, Inc; approved IACUC protocol #03-040 and #03-03-041. […] Due to this impaired tolerance mechanism, a percentage of all T and B cells that enter the periphery have a high likelihood of responding to self protein/tissues and thus initiate autoimmunity early in life. The MRL/lpr model mice develop several chronic inflammatory disease-like symptoms that are characteristic of early and late lupus including the generation of anti-nuclear antibodies, arthritis, dermatological manifestations, immunocomplex-mediated glomerulonephritis leading to proteinuria and eventual death. Lesser characterized phenomenon are CNS and cardiac manifestations, both of which are more common in humans. […] Mortality is higher in the females and occurs around 25 weeks of age, renal disease includes glomerulonephritis, glomerular infiltrates, sclerosis and vasculitis. Both splenomegaly and lymphomegaly associated with dermatitis can also be observed. […] Mice were tracked on an individual basis.

[2] = test system: anti-chromatin antibody secreting cells (ASCs); test: Anti-chromatin antibody secreting B-cell Elispot, MRL/lpr spleen; conditions: MRL/lpr mice; 100 mg/kg; p<0.001
Description: B-cell Elispot components were ordered from MabTech (Nacka Strand, Sweden) and nitrocellulose IP filter plates were ordered from Millipore (Billerica, Mass.). […] Spleens were processed using glass homogenization, filtered through a 60 μm sterile cell strainer and red blood cells (RBCs) lysed using BioLegend (San Diego, Calif.) lysis buffer. Processed splenocytes were added to each well in culture medium. To avoid skewing of true ex vivo frequencies of antibody secreting cell types (ASCs), cells were not stimulated with a polyclonal mitogen like LPS, but rather incubated in media alone to allow monitoring of genuine ex vivo antibody release. Anti-mouse pan-IgG was used as a positive control for total IgG producing ASCs and was used to normalize results. Frequencies for each antigen were identified in an initial test phase for each model. […] Different numbers of splenocytes were added for different antigens due to saturation limits of spot frequencies per well. These limits were previously established. B-cell Elispots were incubated overnight at 37° C. To develop each assay, secondary antibody was added to each well, incubated, washed and alkaline phosphatase strepavidin was used as the conjugate; substrate used was BCIP-NBT. Plates were developed until spots were visible. […]

[3] = test system: IL-4; test: Serum IL-4 in NZM mice
Description: For the processing of serum samples for cytokine analysis, frozen plasma at −80° C. was thawed on ice, vortexed, and centrifuged for 10 minutes to remove debris and aggregates. A total of 25-50 μL of serum was used for Luminex® assays following the manufacturer's instructions. Ten different mouse cytokines were measured using the mouse cytokine 10-plex bead kit (Invitrogen, Carlsbad, Calif., no. LMC0001). Briefly, filter plates (Millipore, Billerica, Mass., no. MAIPSWU10), were pre-wet with 200 μL of wash solution (kit component) and 25 μL of beads were added per well. […]
Age mated, female, NZM or NZW/LacJ, mice were matured for the study of lupus nephritis for a total of 7 months or 210 days at which time urine was collected for proteinuria detection. Mice with 0.5-1.0 mg/ml of urine protein as determined by an optical density-based total protein precipitation assay and cross-checked for 30-300 mg/dl of protein as determined by a stick assay were considered proteinuria positive and selected for study entry. […] End-stage lupus nephritis was evaluated by histopathology and scored by a board certified pathologist for the assessment of total renal damage in diseased animals using the scoring method described by Smith et al (Smith, Dong et al. 2007). […]

With `CN1CCN(c2cccc(Nc3nc4c(-c5ccc(S(C)(=O)=O)cc5)cccn4n3)c2)CC1` [COMPOUND A, [8-(4-methanesulfonyl-phenyl)-[1,2,4]triazolo[1,5-a]pyridin-2-yl]-[3-(4-methyl-piperazin-1-yl)-phenyl]-amine] the “spleen mass decrease vs. vehicle” value ([1]; 55 mg/kg p.o. b.i.d.) was 49.4%, the “total spleen leukocyte counts compared to vehicle” value ([1]; 55 mg/kg p.o. b.i.d.) was “reduced total leukocyte counts” and the mice without lymphomegaly ([1]; 55 mg/kg p.o. b.i.d.) was 100%. The “spleen mass decrease vs. vehicle” value ([1]; 100 mg/kg p.o. b.i.d.) was 74.1%, the “spleen mass relative to non-lupus control animal (MRL/Mp; 98 mg)” value ([1]; 100 mg/kg p.o. b.i.d.) was “decreased spleen mass to the level of a non-lupus control animal” and the “total spleen leukocyte counts compared to vehicle” value ([1]; 100 mg/kg p.o. b.i.d.) was “reduced total leukocyte counts”. For the same compound, the mice without lymphomegaly ([1]; 100 mg/kg p.o. b.i.d.) was 100%, the “frequency of anti-chromatin ASCs in the spleen, decrease vs vehicle” value [2] was 89.1% and the “serum IL-4 decrease compared to vehicle” value ([3]; 55 mg/kg) was 98.7%. The “serum IL-4 decrease compared to vehicle” value ([3]; 100 mg/kg) was 91.8%.
